Laboratory results: patent US11384054B2, “Crystalline form of ivacaftor and a process for preparing the same” (ScinoPharm Taiwan, Ltd., priority 2020, dated 2022)
In brackets after ≈: the same amount, converted by molar mass. Read-outs that look alike come from different tables or passages of the source.

Assay: Solubility test of ivacaftor in solvents and acetone/water mixtures at 25° C.
Format: physicochemical
Conditions: organic solvent or mixture
Method: “Solvent” refers to a liquid substance capable of dissolving ivacaftor at about 50° C. to about 60° C. The term “anti-solvent” refers to a liquid substance which is not capable of dissolving ivacaftor at about 20° C. to about 30° C. More particularly, solvents and anti-solvents suitable for crystalline forms of ivacaftor are selected by solubility test, such as the Tables 1A, […], and 1C below, taking into consideration of advantages provided by the convenience and efficiency of process operation, the use of more environmentally friendly solvents, mild crystallization conditions, and others.

Q: Which results are given for `CC(C)(C)c1cc(C(C)(C)C)c(NC(=O)c2c[nH]c3ccccc3c2=O)cc1O` [ivacaftor]?
A: solubility (N,N-dimethylformamide, N,N-dimethylformamide, 25° C., read-out: Solubility): 109 mg/mL (≈ 277 mM); solubility (acetone, Acetone, 25° C., read-out: Solubility): 27.9 mg/mL (≈ 71 mM); solubility (acetone/water, 0% water in acetone, 25° C., read-out: Solubility in acetone/water): 27.9 mg/mL (≈ 71 mM); solubility (acetone/water, 2% water in acetone, 25° C., read-out: Solubility in acetone/water): 27.9 mg/mL (≈ 71 mM); solubility (acetone/water, 5% water in acetone, 25° C., read-out: Solubility in acetone/water): 41.4 mg/mL (≈ 106 mM); solubility (acetone/water, 8% water in acetone, 25° C. (Table 1C), read-out: Solubility in acetone/water): 41.2 mg/mL (≈ 105 mM); solubility (acetone/water, 10% water in acetone, 25° C., read-out: Solubility in acetone/water): 47.1 mg/mL (≈ 120 mM); solubility (acetone/water, 15% water in acetone, 25° C., read-out: Solubility in acetone/water): 43.3 mg/mL (≈ 110 mM); solubility (acetone/water, 30% water in acetone, 25° C., read-out: Solubility in acetone/water): 11 mg/mL (≈ 28 mM); solubility (acetone/water, 50% water in acetone, 25° C., read-out: Solubility in acetone/water): 0.34 mg/mL (≈ 0.866 mM); solubility (acetonitrile, Acetonitrile, 25° C., read-out: Solubility): 1.78 mg/mL (≈ 4.54 mM); solubility (cyclohexane, Cyclohexane, 25° C., read-out: Solubility): 0.34 mg/mL (≈ 0.866 mM); solubility (dimethyl sulfoxide, Dimethyl sulfoxide, 25° C., read-out: Solubility): 375 mg/mL (≈ 955 mM); solubility (ethanol, Ethanol, 25° C., read-out: Solubility): 4.5 mg/mL (≈ 11.5 mM); solubility (ethyl acetate, Ethyl acetate, 25° C., read-out: Solubility): 16.9 mg/mL (≈ 43.1 mM); solubility (isopropanol, Isopropanol, 25° C., read-out: Solubility): 2.87 mg/mL (≈ 7.31 mM); solubility (methanol, Methanol, 25° C., read-out: Solubility): 1.98 mg/mL (≈ 5.04 mM); solubility (methyl ethyl ketone, Methyl ethyl ketone, 25° C., read-out: Solubility): 44.7 mg/mL (≈ 114 mM); solubility (n-heptane, n-Heptane, 25° C., read-out: Solubility): 0.62 mg/mL (≈ 1.58 mM); solubility (tetrahydrofuran, Tetrahydrofuran, 25° C., read-out: Solubility): 26.6 mg/mL (≈ 67.6 mM)
